# Results reported in US11241507B2, “Near-infrared chemiluminescent probes for in-vivo imaging” (RAMOT AT TEL-AVIV UNIVERSITY LTD., priority 2017, dated 2022).
# Assays:
# [1] = Chemiluminescence properties of NIR luminophores under physiological conditions; assay type: physicochemical; conditions: for ΦCL (chemiluminescence efficiency) / λ maxCL (maximal chemiluminescence emission): physiological conditions
# Experimental: All reactions requiring anhydrous conditions were performed under an argon atmosphere. All reactions were carried out at room temperature unless stated otherwise. Chemicals and solvents were either A.R. grade or purified by standard techniques. TLC: silica gel plates Merck 60 F254: compounds were visualized by irradiation with UV light. Column chromatography (FC): silica gel Merck 60 (particle size 0.040-0.063 mm), eluent given in parentheses. RP-HPLC: C18 5u, 250×4.6 mm, eluent given in parentheses. Preparative RP-HPLC: C18 5u, 250×21 mm, eluent given in parentheses. ^1H-NMR spectra were recorded using Bruker Avance operated at 400 MHz. ^13C-NMR spectra were recorded using Bruker Avance operated at 100 MHz. Chemical shifts were reported in ppm on the δ scale relative to a residual solvent (CDCl3: δ=7.26 for ^1H-NMR and 77.16 for ^13C-NMR, DMSO-d6: δ=2.50 for ^1H-NMR and 39.52 for ^13C-NMR). Mass spectra were measured on Waters Xevo TQD. Fluorescence and chemiluminescence were recorded on Molecular Devices Spectramax i3x. Fluorescence quantum yield was determined using Hamamatsu Quantaurus-QY. All reagents, including salts and solvents, were purchased from Sigma-Aldrich. Light irradiation for photochemical reactions: LED PAR38 lamp (19 W, 3000K).
# Next, we incubated our luminophores under physiological conditions and evaluated their properties. […] As expected, the chemiluminescence emission spectra correlate with the fluorescence spectra of their corresponding decomposition benzoate esters products. […] This difference is attributed to the reduced pKa of Luminophore 2, which accelerate the generation of enriched phenolate population that spontaneously undergoes the chemiexcitation process. The chemiluminescence efficiency of Luminophores 1 and 2 was calculated to be 0.82% and 1.12% respectively. These outstanding results encouraged us to investigate the imaging features of our NIR luminophores to serve as a reporter both in-vitro and in-vivo bioassays.
# β-galactosidase = test: Chemiluminescence kinetic profile of probes in presence and absence of β-galactosidase; assay type: biochemical; conditions: 37° C.
# Experimental: FIGS. […] (1A); chemiluminescence imaging of Probe 1a [5 μM] in HEK293 cells (1B); and quantification of signal intensities evolving from HEK293 cells (1C).
# (§1) The spectral performance of Probe 1a was evaluated by measuring the chemiluminescent signal over time while its incubation took place under physiological conditions in the presence and absence of β-galactosidase (FIG. 1A). […] The emission spectra of 1a overlaps with its parent Luminophore 1 as expected. Next, we investigated the feasibility of Probe 1a to image the over expression of endogenous β-galactosidase in HEK293 cells transfected with the LacZ gene. We incubated Probe 1a with HEK293-LacZ and HEK293-wt cells. […] The chemiluminescence signal was quantified as depicted in FIG. 1C.
# The study in which the feasibility of Probe 1a to image the over expression of endogenous β-galactosidase in HEK293 cells transfected with the LacZ gene was repeated using Probe 3a, corresponding to Luminophore 3 wherein the phenol is masked with a β-galactosidase substrate as the responsive protecting group, and a short polyethylene-glycol ester is introduced instead of the […] acid residue, considering that cell permeability is reduced by negatively charged species.
# [2] = target: T1, β-galactosidase in HEK293 cells transfected with the LacZ gene (Escherichia coli, UniProt P00722); test: Chemiluminescence imaging of HEK293-LacZ versus HEK293-wt cells; assay type: cell-based
# T1 construct: expressed in transfected cells; host or cells: HEK293 (HEK293-LacZ)
# Experimental: FIGS. 1A-1C show the chemiluminescence kinetic profiles of probes 1a [10 μM] in PBS, pH 7.4, in the presence and absence of 1.5 units/mL β-galactosidase at 37° C. (1A); chemiluminescence imaging of Probe 1a [5 μM] in HEK293 cells (1B); and quantification of signal intensities evolving from HEK293 cells (1C).
# Images were obtained following 20 minutes incubation with cell culture medium containing Probe 3a (5 μM), and were recorded on BioSpace Lab PhotonIMAGER™.
# as §1
# In order to investigate the feasibility of Probe 3a to monitor the enzymatic activity of β-galactosidase in vitro, the probe [1 μM] was incubated for 30 minutes with transfected HEK293-LacZ cell that overexpress the enzyme β-galactosidase, and under the same conditions with HEK293-wt cell as a control. The chemiluminescent signal was collected for 4 hours from the samples and quantified as depicts in FIG. 3.
# [3] = Chemiluminescence kinetic profile of probe in presence and absence of H2O2; conditions: probe 10 μM in serum, presence vs absence of H2O2 50 μM
# Experimental: (§2) FIGS. 4A-4C show the chemiluminescent kinetic profile of Probe 2a [10 μM] in serum, in the presence and absence of H2O2[50 μM] (4A); in-vivo imaging of endogenous H2O2 in the peritoneal cavity of mice during an LPS-induced inflammatory response, using probes 2a and 2b. Images of mice were recorded on BioSpace Lab PhotonIMAGER™. Group A: 1 mL of 0.1 mg/mL LPS was injected into the peritoneal cavity of mice, followed 4 h later by an IP injection of Probe 2a [100 μM, 100 μL in PBS]. Group B: 1 mL of 0.1 mg/mL LPS was injected into the peritoneal cavity of mice, followed 4 h later by an IP injection of Probe 2b [100 μM, 100 μL in PBS]. Group C: 1 mL PBS 7.4 was injected into the peritoneal cavity of mice, followed 4 h later by an IP injection of Probe 2a [100 μM, 100 μL in PBS 7.4] (4B); and quantification of signal intensities evolved from each group of mice (4C).
# At first, we wanted evaluated the ability of Probe 2a to detect H2O2, therefore we incubated Probe 2a in the presence and absence of H2O2 and monitored the emitted light.
# endogenous H2O2 = test: In-vivo imaging of endogenous H2O2 in peritoneal cavity of mice, LPS-induced peritonitis
# Experimental: as §2
# Since we established that our luminophores can serve as chemiluminescence reporter for in-vitro imaging we wanted to test their ability to image a whole animal. We tested the ability of Probe 2a to detect endogenous H2O2 by using a mouse model peritonitis that was induced by intraperitoneal injection of lipopolysaccharide (LPS). […] Three groups of mice were applied: (A) mice that were treated with LPS followed by the injection of probe 2a; (B) mice that were treated with LPS followed by the injection of Probe 2b; and (C) mice that were treated with vehicle control (PBS 7.4) followed by the injection of Probe 2a.
# After 1 minute, a ratio of 19 was observed comparing the signal intensities of LPS treated and non-LPS treated mice which were injected with Probe 2a (groups A and C).
# [4] = probe 1 μM, 30 minutes incubation
# T1 sequence (P00722 whole entry): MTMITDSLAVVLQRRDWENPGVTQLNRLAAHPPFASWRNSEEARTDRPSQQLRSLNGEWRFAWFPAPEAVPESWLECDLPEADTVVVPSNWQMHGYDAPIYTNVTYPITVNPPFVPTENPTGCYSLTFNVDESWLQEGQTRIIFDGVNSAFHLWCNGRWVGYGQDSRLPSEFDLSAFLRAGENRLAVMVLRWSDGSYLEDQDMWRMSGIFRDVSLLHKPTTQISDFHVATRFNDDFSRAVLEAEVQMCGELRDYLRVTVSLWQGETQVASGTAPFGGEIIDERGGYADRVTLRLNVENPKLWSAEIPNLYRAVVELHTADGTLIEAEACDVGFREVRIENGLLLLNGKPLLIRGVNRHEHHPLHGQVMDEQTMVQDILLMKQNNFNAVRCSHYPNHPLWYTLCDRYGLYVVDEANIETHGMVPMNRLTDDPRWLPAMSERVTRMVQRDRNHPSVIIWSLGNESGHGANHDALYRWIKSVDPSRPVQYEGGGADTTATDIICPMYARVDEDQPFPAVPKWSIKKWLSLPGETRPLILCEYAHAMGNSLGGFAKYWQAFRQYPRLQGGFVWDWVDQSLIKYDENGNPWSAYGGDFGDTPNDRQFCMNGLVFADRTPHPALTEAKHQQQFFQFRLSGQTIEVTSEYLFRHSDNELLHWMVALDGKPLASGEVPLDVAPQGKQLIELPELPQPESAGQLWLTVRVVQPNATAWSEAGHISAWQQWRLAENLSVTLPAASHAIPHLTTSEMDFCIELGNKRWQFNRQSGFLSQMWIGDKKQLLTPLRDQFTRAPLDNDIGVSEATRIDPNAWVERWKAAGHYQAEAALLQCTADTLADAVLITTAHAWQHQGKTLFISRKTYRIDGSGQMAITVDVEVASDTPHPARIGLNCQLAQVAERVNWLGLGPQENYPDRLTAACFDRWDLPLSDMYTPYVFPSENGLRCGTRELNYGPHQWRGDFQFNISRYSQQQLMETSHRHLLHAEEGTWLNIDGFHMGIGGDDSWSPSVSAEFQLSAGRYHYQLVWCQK
pKa [1],ΦCL (chemiluminescence efficiency) [1],λ maxCL (maximal chemiluminescence emission) [1],Compound,further results
~8.8,0.82%,660 nm,COC1(c2cc(O)ccc2/C=C/C2=CC(=C(C#N)C#N)c3ccccc3O2)OOC12C1CC3CC(C1)CC2C3 (stereo not drawn) [Luminophore 1],
7.71,0.70%,670 nm,COC1(c2cc(O)c(/C=C/C(=O)O)cc2/C=C/C2=C(C#N)C(=C(C#N)C#N)OC2(C)C)OOC12C1CC3CC(C1)CC2C3 (stereo not drawn) [Luminophore 3],
6.72,0.95%,730 nm,COC1(c2ccc(/C=C/C3=CC(=C(C#N)C#N)c4ccccc4O3)c(O)c2Cl)OOC12C1CC3CC(C1)CC2C3 (stereo not drawn) [Luminophore 4],

# The remaining lines, values behind:
Compound,pKa [1],ΦCL (chemiluminescence efficiency) [1],λ maxCL (maximal chemiluminescence emission) [1],further results
COC1(c2cc(O)c(/C=C/C(=O)O)cc2/C=C/C2=CC(=C(C#N)C#N)c3ccccc3O2)OOC12C1CC3CC(C1)CC2C3 (stereo not drawn) [Luminophore 2],7.35,1.12%,690 nm,
COC1(c2cc(O[C@@H]3OC(CO)[C@H](O)C(O)C3O)ccc2/C=C/C2=CC(=C(C#N)C#N)c3ccccc3O2)OOC12C1CC3CC(C1)CC2C3 (stereo partly drawn) [Probe 1a],,,,"signal-to-noise ratio (β-galactosidase; probe 10 μM in PBS pH 7.4, presence vs absence of 1.5 units/mL β-galactosidase): 17; ratio between signal intensities of transfected cells to wild type cells ([2]; HEK293-LacZ vs HEK293-wt, probe 5 μM): 14; chemiluminescent signal in HEK293-LacZ cells ([2]; probe 5 μM): intense chemiluminescent signal; chemiluminescent signal in HEK293-wt cells ([2]; probe 5 μM): negligible chemiluminescent signal"
COC1(c2cc(B3OC(C)(C)C(C)(C)O3)c(/C=C/C(=O)O)cc2/C=C/C2=CC(=C(C#N)C#N)c3ccccc3O2)OOC12C1CC3CC(C1)CC2C3 (stereo not drawn) [Probe 2a],,,,"signal-to-noise ratio [3]: 57; chemiluminescence signal right after probe injection (endogenous H2O2; group A (LPS + Probe 2a) compared with groups B and C): efficient chemiluminescence signal; signal ratio, LPS treated mice injected with Probe 2a vs Probe 2b (endogenous H2O2; groups A and B, IP probe 100 μM, 100 μL in PBS, 4 h after LPS): 45; ratio of signal intensities, LPS treated vs non-LPS treated mice (endogenous H2O2; groups A and C, IP probe 100 μM, 100 μL in PBS, 4 h after LPS or PBS, after 1 minute): 19"
COCCOCCOCCOCCOC(=O)/C=C/c1cc(/C=C/C2=C(C#N)C(=C(C#N)C#N)OC2(C)C)c(C2(OC)OOC23C2CC4CC(C2)CC3C4)cc1OCc1ccc(O[C@@H]2OC(CO)[C@H](O)[C@H](O)C2O)cc1 (stereo partly drawn) [Probe 3a],,,,"signal-to-noise ratio (β-galactosidase; probe 1 μM in PBS (100 mM) 7.4 with 10% serum, presence vs absence of β-galactosidase 1.5 EU/mL): 43; signal ratio between transfected cells to wild type ([2]; HEK293-LacZ vs HEK293-wt, probe 1 μM incubated 30 minutes, signal collected 4 hours): 17; chemiluminescent signal in HEK293-LacZ cells [2, 4]: intense chemiluminescent signal; chemiluminescent signal in HEK293-wt cells [2, 4]: unneglectable chemiluminescent signal"
